Measured values: ChEMBL document CHEMBL3774320, “SAR exploration at the C-3 position of tetrahydro-β-carboline sstr3 antagonists” (Bioorg Med Chem Lett, 2016)
pEC50, pIC50: −log10 of the molar value.

What was measured:
Mus musculus [1] = experiment: Decrease in glucose excursion in mouse at 10 mg/kg, po by Glucose tolerance test; assay type: functional; design: scale not given: the % may be the effect or the level left
[2] = biological target: T1, Somatostatin receptor type 3 (Homo sapiens, UniProt P32745)
Description: Antagonist activity at human somatostatin receptor type 3 assessed as inhibition of cAMP levels

Mus musculus [3] = experiment: Dose normalized AUC in mouse at 2 mg/kg, po; assay type: ADME, organism-based; conditions: in vivo
Mus musculus [4] = experiment: Decrease in glucose excursion in mouse at 0.1 mg/kg, po by Glucose tolerance test; assay type: functional; design: scale not given: the % may be the effect or the level left
[5] = biological target: T1, Somatostatin receptor type 3; remark: listed apart in the source
Description: Binding affinity to human somatostatin receptor type 3

[6] = biological target: Voltage-gated inwardly rectifying potassium channel KCNH2 (Homo sapiens, UniProt Q12809); experiment: Binding affinity to human ERG
Voltage-gated inwardly rectifying potassium channel KCNH2, sequence (Q12809 whole entry): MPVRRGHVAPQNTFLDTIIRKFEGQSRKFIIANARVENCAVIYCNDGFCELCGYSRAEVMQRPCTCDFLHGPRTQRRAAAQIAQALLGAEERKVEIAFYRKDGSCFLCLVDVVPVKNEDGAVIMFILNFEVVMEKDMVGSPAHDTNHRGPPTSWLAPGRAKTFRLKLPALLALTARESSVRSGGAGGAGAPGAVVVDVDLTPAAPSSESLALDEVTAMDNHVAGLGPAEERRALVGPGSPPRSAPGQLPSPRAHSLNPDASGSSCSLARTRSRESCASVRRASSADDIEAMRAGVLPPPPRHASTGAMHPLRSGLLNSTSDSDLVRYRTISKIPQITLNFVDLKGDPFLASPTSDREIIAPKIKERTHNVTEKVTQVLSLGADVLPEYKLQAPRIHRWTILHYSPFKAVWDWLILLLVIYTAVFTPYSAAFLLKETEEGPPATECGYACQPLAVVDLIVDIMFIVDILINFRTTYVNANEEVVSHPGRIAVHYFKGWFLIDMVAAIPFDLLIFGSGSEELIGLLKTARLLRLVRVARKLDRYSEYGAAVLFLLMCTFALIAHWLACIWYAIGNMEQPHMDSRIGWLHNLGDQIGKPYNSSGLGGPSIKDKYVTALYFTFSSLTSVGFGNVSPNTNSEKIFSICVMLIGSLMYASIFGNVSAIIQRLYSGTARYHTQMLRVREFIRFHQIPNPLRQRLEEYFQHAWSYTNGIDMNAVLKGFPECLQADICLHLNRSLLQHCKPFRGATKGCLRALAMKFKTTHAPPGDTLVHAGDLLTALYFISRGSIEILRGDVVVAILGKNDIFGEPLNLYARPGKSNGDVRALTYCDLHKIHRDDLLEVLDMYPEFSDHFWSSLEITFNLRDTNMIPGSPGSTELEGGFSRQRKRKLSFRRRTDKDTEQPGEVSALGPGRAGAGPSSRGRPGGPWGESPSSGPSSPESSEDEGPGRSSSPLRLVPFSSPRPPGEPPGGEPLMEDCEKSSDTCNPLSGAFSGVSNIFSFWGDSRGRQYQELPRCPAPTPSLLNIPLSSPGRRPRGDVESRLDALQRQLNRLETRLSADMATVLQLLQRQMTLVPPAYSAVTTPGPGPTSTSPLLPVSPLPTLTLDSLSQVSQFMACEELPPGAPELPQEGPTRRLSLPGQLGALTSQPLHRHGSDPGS

T1 sequence (P32745 whole entry): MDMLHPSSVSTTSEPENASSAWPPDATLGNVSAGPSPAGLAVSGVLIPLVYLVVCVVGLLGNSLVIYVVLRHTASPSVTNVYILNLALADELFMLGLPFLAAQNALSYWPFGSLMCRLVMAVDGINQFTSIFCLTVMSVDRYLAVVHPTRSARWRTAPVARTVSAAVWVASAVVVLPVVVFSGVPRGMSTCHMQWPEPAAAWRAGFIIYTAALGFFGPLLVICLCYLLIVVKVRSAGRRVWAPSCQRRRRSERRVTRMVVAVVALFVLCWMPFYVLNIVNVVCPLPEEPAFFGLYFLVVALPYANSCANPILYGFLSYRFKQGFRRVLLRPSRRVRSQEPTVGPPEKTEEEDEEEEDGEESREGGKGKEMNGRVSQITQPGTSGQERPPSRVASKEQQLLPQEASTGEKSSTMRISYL

Compound	pEC50 [2]	pIC50 [5]	further results
c1ccc(-c2c[nH]c([C@H]3Cc4c([nH]c5ccccc45)[C@@H](C4CCOCC4)N3)n2)cc1	7.66	–	Activity (Mus musculus [1]): 75%; AUC/dose (Mus musculus [3]): 1.25 µM·h/mg/kg
Cc1nc([C@]2(c3cnn(C)c3)N[C@@H](c3nc(-c4ccc(F)cc4)c[nH]3)Cc3c2[nH]c2ccccc32)no1	–	–	Activity (Mus musculus [4]): 94%
O=C(O)c1cccc(-c2c[nH]c([C@H]3Cc4c([nH]c5ccccc45)[C@@H](C4CCOCC4)N3)n2)c1	–	< 5.88	–
Fc1ccccc1-c1c[nH]c([C@H]2Cc3c([nH]c4ccccc34)[C@@H](C3CCOCC3)N2)n1	7.52	7.74	–
CS(=O)(=O)c1ccc(-c2c[nH]c([C@H]3Cc4c([nH]c5ccccc45)[C@@H](C4CCOCC4)N3)n2)cc1	< 6.00	< 5.88	–
c1ccc2c3c([nH]c2c1)[C@@H](C1CCOCC1)N[C@@H](c1nc(-c2ccsc2)c[nH]1)C3	7.32	7.82	–
COc1cccc(-c2c[nH]c([C@H]3Cc4c([nH]c5ccccc45)[C@](c4cnn(C)c4)(c4noc(C)n4)N3)n2)n1	8.32	8.68	–
Cn1cc(-c2ccc(F)cc2)nc1[C@H]1Cc2c([nH]c3ccccc23)[C@H](C2CCOCC2)N1	–	5.88	–
Cc1ccc(-c2c[nH]c([C@H]3Cc4c([nH]c5ccccc45)[C@@H](C4CCOCC4)N3)n2)cc1	6.95	7.48	–
Cc1nc([C@@]2(c3cnn(C)c3)N[C@@H](c3nc(-c4ccccn4)c[nH]3)Cc3c2[nH]c2ccccc32)no1	7.11	7.62	–
Fc1cccc(-c2c[nH]c([C@H]3Cc4c([nH]c5ccccc45)[C@@H](C4CCOCC4)N3)n2)c1	7.06	8.09	–
c1cncc(-c2c[nH]c([C@H]3Cc4c([nH]c5ccccc45)[C@@H](C4CCOCC4)N3)n2)c1	–	6.71	–
N#Cc1ccc(-c2c[nH]c([C@H]3Cc4c([nH]c5ccccc45)[C@@H](C4CCOCC4)N3)n2)cc1	–	6.85	–
Clc1ccc(-c2c[nH]c([C@H]3Cc4c([nH]c5ccccc45)[C@@H](C4CCOCC4)N3)n2)cc1	7.30	8.09	–
c1ccc2c3c([nH]c2c1)[C@@H](C1CCOCC1)N[C@@H](c1nc(-c2ccncc2)c[nH]1)C3	6.36	6.79	–
Clc1ccc(-c2c[nH]c([C@H]3Cc4c([nH]c5ccccc45)[C@@H](C4CCOCC4)N3)n2)nc1	6.70	7.13	–
c1cnc(-c2c[nH]c([C@H]3Cc4c([nH]c5ccccc45)[C@@H](C4CCOCC4)N3)n2)nc1	< 6.00	< 5.88	–
c1ccc2c3c([nH]c2c1)[C@@H](C1CCOCC1)N[C@@H](c1nc(-c2cscn2)c[nH]1)C3	< 6.00	6.10	–
c1ccc2c3c([nH]c2c1)[C@@H](C1CCOCC1)N[C@@H](c1nc(-c2cnccn2)c[nH]1)C3	5.35	6.11	–
COc1cccc(-c2c[nH]c([C@H]3Cc4c([nH]c5ccccc45)[C@@H](C4CCOCC4)N3)n2)c1	7.77	8.34	–
c1ccc(-c2nc([C@H]3Cc4c([nH]c5ccccc45)[C@@H](C4CCOCC4)N3)c[nH]2)cc1	6.39	6.31	–
Cc1nc([C@]2(c3cnn(C)c3)N[C@@H](c3nc(-c4ccccc4)c[nH]3)Cc3c2[nH]c2ccccc32)no1	9.34	8.85	–
Fc1ccc(-c2c[nH]c([C@H]3Cc4c([nH]c5ccccc45)[C@@H](C4CCOCC4)N3)n2)c(F)c1	7.43	7.64	pIC50 [6]: 6.20
Cc1csc(-c2c[nH]c([C@H]3Cc4c([nH]c5ccccc45)[C@@H](C4CCOCC4)N3)n2)c1	6.86	7.47	–
Cn1c2c(c3ccccc31)C[C@H](c1nc(-c3ccc(F)cc3)c[nH]1)N[C@@H]2C1CCOCC1	6.82	7.59	–
COc1cccc(-c2c[nH]c([C@H]3Cc4c([nH]c5ccccc45)[C@@](c4cnn(C)c4)(c4noc(C)n4)N3)n2)n1	7.77	8.54	–
N#Cc1cccc(-c2c[nH]c([C@H]3Cc4c([nH]c5ccccc45)[C@@H](C4CCOCC4)N3)n2)c1	6.36	7.43	–

Compound	pEC50 [2]	pIC50 [5]	further results
COc1ccc(-c2c[nH]c([C@H]3Cc4c([nH]c5ccccc45)[C@@H](C4CCOCC4)N3)n2)cc1	6.74	6.90	–
c1ccc2c3c([nH]c2c1)[C@@H](C1CCOCC1)N[C@@H](c1nc(-c2csc4ccccc24)c[nH]1)C3	7.96	8.00	–
FC(F)(F)Oc1ccc(-c2c[nH]c([C@H]3Cc4c([nH]c5ccccc45)[C@@H](C4CCOCC4)N3)n2)cc1	< 6.00	6.19	–
COc1cccc(-c2c[nH]c([C@H]3Cc4c([nH]c5ccccc45)[C@@H](C4CCOCC4)N3)n2)n1	8.51	8.10	pIC50 [6]: 5.99
Oc1ccc(-c2c[nH]c([C@H]3Cc4c([nH]c5ccccc45)[C@@H](C4CCOCC4)N3)n2)cc1	7.59	7.47	–
c1ccc2c3c([nH]c2c1)[C@@H](C1CCOCC1)N[C@@H](c1nc(-c2nccs2)c[nH]1)C3	< 6.00	< 5.88	–
c1ccc(-c2ccc(-c3c[nH]c([C@H]4Cc5c([nH]c6ccccc56)[C@@H](C5CCOCC5)N4)n3)cc2)cc1	< 6.00	6.41	–
c1ccc(-c2c[nH]c([C@H]3Cc4c([nH]c5ccccc45)[C@@H](C4CCOCC4)N3)n2)nc1	6.71	6.96	–
Clc1ccc(-c2c[nH]c([C@H]3Cc4c([nH]c5ccccc45)[C@@H](C4CCOCC4)N3)n2)s1	6.69	7.77	–
FC(F)(F)Oc1cccc(-c2c[nH]c([C@H]3Cc4c([nH]c5ccccc45)[C@@H](C4CCOCC4)N3)n2)c1	< 6.00	7.37	pIC50 [6]: 7.24
Fc1ccc(-c2c[nH]c([C@H]3Cc4c([nH]c5ccccc45)[C@@H](C4CCOCC4)N3)n2)cc1F	8.19	8.74	–
c1ccc2c3c([nH]c2c1)C(C1CCOCC1)NC(c1nc(C2CCCCC2)c[nH]1)C3 (configuration not stated)	6.16	6.64	–
Fc1ccc(-c2n[nH]c([C@H]3Cc4c([nH]c5ccccc45)[C@@H](C4CCOCC4)N3)n2)cc1	6.70	6.55	–
Cc1nc([C@@]2(c3cnn(C)c3)N[C@@H](c3nc(-c4ccccc4)c[nH]3)Cc3c2[nH]c2ccccc32)no1	8.48	8.59	–
c1ccc2c(-c3c[nH]c([C@H]4Cc5c([nH]c6ccccc56)[C@@H](C5CCOCC5)N4)n3)c[nH]c2c1	–	6.88	–
Fc1ccc(-c2c[nH]c([C@H]3Cc4c([nH]c5ccccc45)[C@@H](C4CCOCC4)N3)n2)nc1	7.17	7.41	–
Cc1nc([C@]2(c3cnn(C)c3)N[C@@H](c3nc(-c4ccccn4)c[nH]3)Cc3c2[nH]c2ccccc32)no1	8.26	8.03	–
FC(F)(F)c1ccc(-c2c[nH]c([C@H]3Cc4c([nH]c5ccccc45)[C@@H](C4CCOCC4)N3)n2)cc1	5.82	7.59	–
CC(C)(C)c1c[nH]c(C2Cc3c([nH]c4ccccc34)C(C3CCOCC3)N2)n1 (configuration not stated)	6.00	6.82	pIC50 [6]: 5.53
Cc1[nH]c([C@H]2Cc3c([nH]c4ccccc34)[C@@H](C3CCOCC3)N2)nc1-c1ccccc1	< 6.00	6.24	–
c1ccc2c3c([nH]c2c1)C(C1CCOCC1)NC(c1nc(C24CC5CC(CC(C5)C2)C4)c[nH]1)C3 (configuration not stated)	< 6.00	7.60	pIC50 [6]: 6.30
Fc1ccc(-c2cc([C@H]3Cc4c([nH]c5ccccc45)[C@@H](C4CCOCC4)N3)[nH]n2)cc1	6.03	6.55	–
Cn1cc(-c2ccc(F)cc2)nc1[C@H]1Cc2c([nH]c3ccccc23)[C@@H](C2CCOCC2)N1	< 6.00	6.65	–
CC1(c2nc(-c3ccccc3)c[nH]2)Cc2c([nH]c3ccccc23)C(C2CCOCC2)N1 (stereo in doubt; 6b)	–	6.22	pIC50 [6]: 5.53
CC1(c2nc(-c3ccccc3)c[nH]2)Cc2c([nH]c3ccccc23)C(C2CCOCC2)N1 (stereo in doubt; 6c)	–	< 5.88	pIC50 [6]: 5.79
CC1(c2nc(-c3ccccc3)c[nH]2)Cc2c([nH]c3ccccc23)C(C2CCOCC2)N1 (stereo in doubt; 6d)	< 6.00	6.99	pIC50 [6]: 6.28
